Values of other authors as cited in patent US8003783B2, “17B-hydroxysteroid dehydrogenase inhibitors” (Sterix Limited, priority 2004, dated 2011).

Legend:
E1-STS = target: T1, E1-STS (Homo sapiens, UniProt P08842); set-up: dose or concentration left out as unconfirmed; settings: intact MCF-7 cells; cited from earlier work
T1 construct: endogenous in cells; host or cells: MCF-7 human breast cancer cells
T1 sequence (P08842 22-583): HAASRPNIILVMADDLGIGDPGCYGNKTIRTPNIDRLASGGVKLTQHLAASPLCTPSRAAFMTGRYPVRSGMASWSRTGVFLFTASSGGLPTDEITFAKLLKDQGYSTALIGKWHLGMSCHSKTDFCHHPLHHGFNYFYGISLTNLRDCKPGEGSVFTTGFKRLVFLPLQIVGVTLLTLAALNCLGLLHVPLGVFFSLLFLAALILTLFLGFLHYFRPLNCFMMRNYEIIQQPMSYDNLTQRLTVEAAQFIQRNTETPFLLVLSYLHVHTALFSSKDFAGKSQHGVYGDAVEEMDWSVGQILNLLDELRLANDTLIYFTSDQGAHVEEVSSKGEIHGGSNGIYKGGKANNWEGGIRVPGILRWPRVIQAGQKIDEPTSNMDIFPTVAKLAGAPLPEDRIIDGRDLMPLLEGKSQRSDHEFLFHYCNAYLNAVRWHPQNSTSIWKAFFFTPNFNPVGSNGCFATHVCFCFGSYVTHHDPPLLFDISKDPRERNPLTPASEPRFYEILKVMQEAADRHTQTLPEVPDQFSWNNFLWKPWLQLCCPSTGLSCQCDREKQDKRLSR

rat liver DHA-STS = target: T2, rat liver DHA-STS (Rattus norvegicus, UniProt P15589); settings: administered orally or subcutaneously; cited from earlier work
T2 construct: from tissue; host or cells: rat liver
T2 sequence (P15589 20-577): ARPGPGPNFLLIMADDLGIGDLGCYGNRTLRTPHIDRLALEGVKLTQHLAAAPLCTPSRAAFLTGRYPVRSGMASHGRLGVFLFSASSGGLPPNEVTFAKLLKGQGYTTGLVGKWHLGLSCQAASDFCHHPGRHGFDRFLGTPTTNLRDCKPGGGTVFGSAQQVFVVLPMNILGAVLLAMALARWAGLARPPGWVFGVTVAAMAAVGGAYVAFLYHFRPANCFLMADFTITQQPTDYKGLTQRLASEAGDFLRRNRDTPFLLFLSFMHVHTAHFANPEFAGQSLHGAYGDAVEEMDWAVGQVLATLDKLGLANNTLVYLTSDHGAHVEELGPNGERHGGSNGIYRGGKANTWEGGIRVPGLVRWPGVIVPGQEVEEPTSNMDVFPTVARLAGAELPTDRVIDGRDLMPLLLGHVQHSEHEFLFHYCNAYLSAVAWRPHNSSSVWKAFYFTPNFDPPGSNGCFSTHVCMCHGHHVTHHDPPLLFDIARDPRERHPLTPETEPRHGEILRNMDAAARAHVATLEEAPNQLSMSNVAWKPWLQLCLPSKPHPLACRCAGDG

rats = settings: cited from earlier work
rat liver E1-STS = target: T3, rat liver E1-STS (Rattus norvegicus, UniProt P15589); settings: administered orally or subcutaneously; cited from earlier work
T3 construct: samples of liver tissue were obtained and oestrone sulphatase activity assayed; from tissue; host or cells: rat liver
T3 sequence (P15589 20-577): T2 sequence (P15589 20-577)

Q: Which “inhibition of E1-STS activity” value (E1-STS) does the source give for `C[C@]12CC[C@@H]3c4ccc(OS(N)(=O)=O)cc4CC[C@H]3[C@@H]1CCC2=O` [EMATE, oestrone-3-sulphamate] here?
A: more than 99%

Q: And the “inhibition of rat liver DHA-STS activity” value (rat liver DHA-STS)?
A: 99%

Q: What about the “oral uterotrophic activity relative to oestradiol” value (rats) of the same compound?
A: 100 times

Q: What about the “inhibition of rat liver E1-STS activity” value (rat liver E1-STS) of the same compound?
A: 99%
